Patent US5969017A, “Methods of treating or preventing cardiac arrhythmia” (Merck & Co., Inc., priority 1997, dated 1999)

system: other cardiac K+ channels; assay: Block of the other cardiac K+ channels (IK1, IKr and IKs, summary); type: cell-based, guinea pig; details: summary of Table 2
Procedure: D. Measurement of IKs IKr and IK1 in Guinea Pig Ventricular Myocytes.
Guinea pig ventricular myocytes were isolated using a modification of the procedure described by Mitra et al., Am. J. Physiol. 249:H1056-60 (1985). Excised hearts were perfused through the aorta (retrograde fashion) at a rate of 10 ml/min with oxygenated, warmed (37° C.) solutions described below. The heart was initially perfused for 7 minutes with a Tyrode's solution containing, in mM: 132 NaCl, 4 KCl, 1.2 MgCl2, 10 HEPES, 5 glucose, pH=7.2. The heart was then perfused with the same nominally Ca^2+ -free solution containing 150 units/ml Type II collagenase (Worthington) and 0.5 units/ml Type XIV protease (Sigma) for 8 minutes. This perfusate was followed by a Tyrode's solution contianing 0.2 mM CaCl2 (without enzymes) for 5 minutes. The digested ventricles were cut into small pieces and gently shaken until cells were visibly dispersed. The cells were stored at room temperature until use, within 8 hours after isolation.
Microelectrode fabrication:
The suction microelectrode technique described by Giles, W. R. and Shibata, E. F., "Voltage clamp of bull-frog cardiac pacemaker cells: a quantitative analysis of potassium currents", J. Physiol. 368:265-292 (1985) was used to voltage clamp the cells. Microelectrodes were made by using a two stage puller from square bore (1.0 mm o.d.) borosilicate capillary tubing. Pipettes were filled with 0.5 M K gluconate, 25 mM KCl and 5 mM K2 ATP. The electrodes had resistances of 3 to 7 Mohm when filled with this solution. After establishing whole-cell recording mode, negative pressure was maintained on the pipette using a 1 ml gas-tight syringe attached via air tight tubing to the suction port of the microelectrode holder. This minimized dialysis of the cell with the pipette solution.
To record K^+ currents, the cells were bathed in a Ca^2+ -free Tyrode's solution containing […]. […] To record Ca^2+ currents, the cells were bathed in Tyrode's solution containing 1.8 mM Ca^2+ without nisoldipine. The cell chamber was superfused with solutions at a rate of 1-2 ml/minute, while maintaining the temperture at […]. A List EPC-7 clamp amplifier was used to voltage clamp the isolated cells. Series resistance was compensated 40-70%, and current was low-pass filtered at a cut-off frequency of 1 kHz. […] Data was analyzed as % block from control membrane currents.
Nisoldipine was prepared as a 4 mM stock solution in polyethylne glycol 200. […] At the final concentrations used, neither polyethylene glycol 200 nor dimethyl sulfoxide had any effect on any of the measured membrane currents.
Selectivity for block of cardiac K^+ channels, IK1, IKr, and IKs was determined as previously described in guinea pig ventricular myocytes (U.S. Pat. No. 5,428,031).

SMILES | blockade of the other cardiac K+ channels (in words)
COc1ccc(-n2nc(Sc3ccc(Cl)cc3)c(C)c(C#N)c2=O)cc1 [C, 6-(4-Chlorophenylthio)-2-(4-methoxyphenyl)-5-methyl-3-oxo-2,3-dihydropyridazine-4-carbonitrile] | minimal or absent
CC1CCC(C(C)C)C(P(=O)(c2ccccc2)c2ccccc2)C1 (stereo not shown) [A, (2-Isopropyl-5-methylcyclohexyl)diphenylphosphine oxide] | minimal or absent
Cc1cc(C)c(CP(=O)(c2ccccc2)c2ccccc2)c(-c2ccc(F)c(C)c2)c1 [B, 2-(Diphenylphosphinylmethyl)-4'-fluoro-3,5,3'-trimethyl-biphenyl] | minimal or absent
COc1ccc(-n2nc(Sc3ccc(C)cc3)c(C)c(C#N)c2=O)cc1 [D] | minimal or absent
